Source: patent US12605350B2, “Composition for preventing, ameliorating, or treating disease caused by nitration of tyrosine in proteins comprising tyrosine as effective component” (INDUSTRY-ACADEMIC COOPERATION FOUNDATION GYEONGSANG …, priority 2020, dated 2026)

What was measured:
Assay type in all cases: in vivo, mouse
IL-6 = IL-6 gene expression in kidney tissues (quantitative real-time PCR), renal ischemia and reperfusion; details: L-tyrosine 100 mg/kg oral once a day for 4 days, 24 hours after ischemia and reperfusion
Experimental: (§1) C57BL/6 male mouse (23 to 25 g, KOATECH, South Korea) was allowed to have free access to diets and water in sterile breeding room with constant temperature and humidity. The animals were divided into 3 test groups, i.e., 1) Control group (Sham), 2) Renal ischemia having treatment with prepared solvent and induced reperfusion group (CMC+IR), and 3) Renal ischemia having treatment with L-tyrosine and induced reperfusion group (L-Tyr+IR).
L-Tyrosine (100 mg/kg) was suspended in 0.5% CMC (carboxymethyl cellulose). The animal was orally administered, once a day for 4 days, with L-tyrosine or the prepared solvent CMC. Thirty minutes after the oral administration on Day 4, renal ischemia was caused. Specifically, the animal abdomen was cut and renal pedicles at both sides were clamped using a Muller atraumatic vascular clamp to cause renal ischemia. After 25 minutes of blood ischemia, the clamp was removed followed by reperfusion. The control group (Sham) received the same operational procedures as above except the ischemia using clamp. […]
According to Trizol method, total RNA was extracted from kidney tissues, and cDNA was synthesized by using Revert Aid Reverse Transcription System (ThermoFisher). Quantitative PCR was carried out with CFX Connect Real-Time PCR system (Bio-Rad) by using iQ SYBR Green Super mix (Bio-Rad). […]

[1] = test system: animal model of acute hepatic encephalopathy caused by AOM; assay: ammonia in blood, hepatic encephalopathy (hyperammonemia) caused by azoxymethane; details: L-tyrosine 100 mg/kg oral once a day for 4 days, AOM 100 mg/kg i.p.
Experimental: (§2) C57BL/6 male mouse (13-week old, KOATECH, South Korea) was allowed to have free access to diets and water in sterile breeding room with constant temperature and humidity. The animals were divided into 3 test groups, i.e., (1) Control group (Control), (2) Carboxymethyl cellulose+azoxymethane treatment group (CMC+AOM), and (3) L-Tyrosine+AOM treatment group (L-Tyr+AOM). L-Tyrosine (100 mg/kg) was suspended in 0.5% CMC (carboxymethyl cellulose). The animal was orally administered, once a day for 4 days, with L-tyrosine or the prepared solvent CMC. Two hours after the oral administration on Day 4, intraperitoneal injection of AOM (100 mg/kg, […]) was carried out. To prevent dehydration, the animal was intraperitoneally injected with […] of physiological saline, 12 hours after the administration of AOM. Four hours after the injection, the test animal was sacrificed, blood was collected from the heart, and the liver tissues were harvested. Amount of ammonia in blood was measured by using PocketChem BA PA-4140 (Arkray, Japan), which is an analytical device based on single wavelength reflectometry. Specifically, blood was applied in an amount of 20 μl on a test strip followed by reaction for 3 minutes. The strip was then inserted to the measurement device to obtain the absorbance at a wavelength of 635 nm (LED), which was then expressed in unit of μg/dl.

nitrotyrosine protein = nitrotyrosine protein in liver tissues (Western blot), azoxymethane model; details: L-tyrosine 100 mg/kg oral for 4 days, 16 hours after the administration of AOM
Experimental: as §2, with “harvested.” for “harvested. Amount of ammonia in blood was measured by using PocketChem BA PA-4140 (Arkray, Japan), which is an analytical device based on single wavelength reflectometry. Specifically, blood was applied in an amount of 20 μl on a test strip followed by reaction for 3 minutes. The strip was then inserted to the measurement device to obtain the absorbance at a wavelength of 635 nm (LED), which was then expressed in unit of μg/dl.”
Liver tissues were homogenized with RIPA buffer solution. After centrifuge for 15 minutes at 16,000×g, 4° C., supernatant was collected and the protein quantification was carried out by BCA method. After SDS-PAGE electrophoresis, proteins were transferred to a PVDF membrane, and then blocked with 5% skim milk. […]

[2] = test system: chronic immobilization stress group (STR); assay: ammonia amount in PFC (Ammonia assay kit); details: stress group fed tyrosine-diet
Experimental: PFC tissues were weighed at a temperature of not more than −20° C. to prevent them from melting. To a 1.5 ml tube, RIPA (proteinase inhibitor cocktail, containing PIC) in an amount of 100 μl per 10 mg of the tissues and suitable number of glass beads were added, and then the tissues were lysed twice for 30 seconds by using a bullet blender. Lysed tissues were spun down, transferred to a fresh 1.5 ml tube, and then subjected to tissue homogenization for 1 min by ultrasonication. After centrifuged for 15 minutes at 12,000 rpm, supernatant was transferred to a fresh 1.5 ml tube and kept at −80° C. until use. […]
To 100 μl of the ammonia assay reagent provided in the Ammonia assay kit, 10 μl of the sample diluted by a factor 2 using PBS buffer solution (i.e., corresponding to 5 μg tissues) were added and incubated for 5 minutes at room temperature. […] After 5 minutes, absorbance was measured at 340 nm by using a microreader (Ainitial).
After adding 10 μl of glutamate dehydrogenase solution and incubation for 5 minutes at room temperature, absorbance was measured at 340 nm by using a microreader (Afinal).
DA340 nm (Afinal-Ainitial) was then calculated, and DA340 nm of the blank control or DA340 nm of buffer solution blank control was excluded by subtraction for the reference and sample, respectively. […]

Cu/Zn SOD = assay: activity of Cu/Zn SOD, renal ischemia and reperfusion; details: L-tyrosine 100 mg/kg oral for 4 days, IR
Experimental: as §1
L-Tyrosine (100 mg/kg) was suspended in 0.5% CMC (carboxymethyl cellulose). The animal was orally administered, once a day for 4 days, with L-tyrosine or the prepared solvent CMC. Thirty minutes after the oral administration on Day 4, renal ischemia was caused. Specifically, the animal abdomen was cut and renal pedicles at both sides were clamped using a Muller atraumatic vascular clamp to cause renal ischemia. After 25 minutes of blood ischemia, the clamp was removed followed by reperfusion. The control group (Sham) received the same operational procedures as above except the ischemia using clamp. Twenty-four hours after the reperfusion, the test animal was sacrificed, blood was collected from the heart, and the tissues were harvested.

Row | Compound | gene expression of IL-6 in kidney tissues (IL-6) | blood ammonia [1] | nitrotyrosine protein in liver tissues (nitrotyrosine protein) | ammonia amount in PFC [2] | activity of Cu/Zn SOD (Cu/Zn SOD)
1 | N[C@@H](Cc1ccc(O)cc1)C(=O)O [L-tyrosine] | suppressed | suppressed | suppressed with statistical significance |  | 
2 | N[C@@H](Cc1ccc(O)cc1)C(=O)O [tyrosine] |  |  |  | reduced to a similar level to the normal group | again recovered
